The results in this text go back to patent US8815933B2 (EnVivo Pharmaceuticals, Inc., priority 2008, dated 2014).

One data set can be described thus: half-life in dog. The conditions noted are these: in vivo, iv.
The nature of another data set: half-life in rat. The following applies: in vivo, iv, 1 mg/kg.
Data set [1] is described as follows: free fraction of drug in human plasma.
Protocol: (§1) The free drug concentration in plasma ([free drug]plasma) is determined by measuring the total drug concentration in the plasma ([total drug]plasma) and the free fraction of the drug, i.e., the fraction of the drug that is not bound to plasma protein (fuplasma):[free drug]plasma=[total drug]plasmaX fuplasma. The total plasma drug concentration and the fraction that binds to plasma protein can both be measured using techniques known to those of skill in the art.
Data set [2] in a line: maximum plasma concentration in human SAD/MAD clinical trials. The class given is in vivo. The following applies: human, once a day dosing. The method, then:
Multiple ascending dose (MAD) human clinical trials were conducted.
These values are 35-2000 times lower than would have anticipated if efficacy was to be achieved when the free plasma concentration reached the Ki or the ECref concentrations. […] These values are 9.4-667 times lower than expected.

The nature of data set [3]: free fraction of drug in dog plasma.
Protocol: as §1
The nature of data set [4]: free fraction of drug in rat plasma.
Protocol: as §1
Data set [5] can be described thus: half-life in humans (clinical trials). The class given is in vivo, Human. The conditions noted are these: for half-life: plasma, 1 mg. The source says: The unexpectedly long half-life in humans has several advantages. It allows for once a day dosing. The drug will also have a very small dynamic plasma range over the course of a day (about 15-20%). Thus, if a patient misses a daily dose, the plasma level and the consequent brain level will not be altered by a great degree. This means that the beneficial effects of the drug will be less dependent upon careful adherence to a specific dosing scheme. Third, long half-life and slow elimination also mean that the final dose will be lower than expected. This readily observed by looking at the Cmax values on Day 1 versus Day 21. The Cmax values on Day 21 are about 3.6-4.2 times higher than the Day 1 values. This ratio will translate into a dose that is 3.6-4.2 times lower than would normally be expected due to this favorable accumulation.

`O=C(N[C@H]1CN2CCC1CC2)c1cc2cccc(Cl)c2s1`: the half-life in “half-life in dog” (0.5 mg/kg) was 5.39 h; in “half-life in dog” (3 mg/kg) it was 13 h; in “half-life in rat” it was 2.77 h; in data set [5] (human, oral, read-out: observed half-life in humans (converted)) it was 60 h; in data set [5] (po, Human, p.o., read-out: t1/2), 50.1 to 70.1 h. The molecule further gave a Human fuplasma in data set [1] of 0.129. In data set [2], the “dynamic plasma range over the course of a day” value is 15-20%. For the same molecule, in data set [3], the Dog fuplasma is listed as 0.107. Also, the Rat fuplasma in data set [4] was determined as 0.112. Moreover, the “human half-life suggested by initial allometric scaling” value in data set [5] (scaled from rat and dog half-life) is listed as “about 8 hours”.
